Data: patent US20180206495A1, “SUBSTITUTED ARYL AND HETEROARYL CARBOXYLIC ACID HYDRAZIDES OR SALTS THEREOF AND USE THEREOF TO INCREASE STRESS TOLERANCE IN PLANTS” (BAYER CROPSCIENCE AKTIENGESELLSCHAFT, priority 2015, published 2018)

Columns and labels:
Brassica napus = assay: In vivo analyses Part B: drought stress, spray application, appearance vs stressed control in categories, Brassica napus; design: key: 0: no positive effect; +: slight positive effect; ++: clear positive effect; +++: strong positive effect
Procedure: (§1) Seeds of monocotyledonous and dicotyledonous crop plants were sown in sandy loam in plastic pots, covered with soil or sand and cultivated in a greenhouse under good growth conditions. The test plants are treated at the early leaf stage (BBCH10-BBCH13). To assure uniform water supply before commencement of stress, the potted plants were supplied with water by dam irrigation prior to substance application. The inventive compounds were first formulated as wettable powders (WP) or dissolved in a solvent mixture. The further dilution was effected with water supplemented with 0.2% wetting agent (e.g. agrotin). The finished spray liquor was sprayed onto the green parts of the plant at an equivalent water application rate of 600 l/ha. Substance application was followed immediately by stress treatment of the plants. Drought stress was induced by gradual drying out under the following conditions: “Day”: 14 hours with illumination at ˜26-30° C. “Night”: 10 hours without illumination at ˜18-20° C. The duration of the respective stress phases was guided mainly by the condition of the stressed control plants. It was ended (by re-irrigating and transfer to a greenhouse with good growth conditions) as soon as irreversible damage was observed on the stressed control plants. The end of the stress phase was followed by an about 4-7-day recovery phase, during which the plants were once again kept under good growth conditions in a greenhouse. The duration of the recovery phase was guided mainly by when the trial plants had attained a state which enabled visual scoring of potential effects, and was therefore variable. Once this juncture had been reached, the appearance of the plants treated with test substances was recorded in comparison to the stressed control plants by the following categories: • 0 no positive effect • + slight positive effect • ++ clear positive effect • +++ strong positive effect In order to rule out any influence on the effects observed by any fungicidal or insecticidal action of the test compounds, it was additionally ensured that the tests proceeded without fungal infection or insect infestation. The values reported in tables B-1 and B-2 below are mean values of the results from at least three repeats. Effects of selected compounds of the general formula (I) under drought stress according to the following tables B-1 and B-2: […]

Triticum aestivum = assay: In vivo analyses Part B: drought stress, spray application, appearance vs stressed control in categories, Triticum aestivum; design: key: 0: no positive effect; +: slight positive effect; ++: clear positive effect; +++: strong positive effect
Procedure: as §1

Compound	Effect (BRSNS) (Brassica napus; dosage 250 g/ha)	Effect (TRZAS) (Triticum aestivum; dosage 250 g/ha)	other results
CN(C)N(Cc1c(F)cccc1F)C(=O)c1ccccc1C(F)(F)F [A1-17]	–	–	Effect (BRSNS) (Brassica napus; dosage 25 g/ha): ++
CN(C)N(Cc1ncccn1)C(=O)c1ccccc1C(F)(F)F [A1-27]	++	–	–
CN(C)N(Cc1cccc(C#N)c1)C(=O)c1ccccc1C(F)(F)F [A1-62]	–	–	Effect (BRSNS) (Brassica napus; dosage 25 g/ha): ++
CN(C)N(Cc1ccc(C#N)cc1)C(=O)c1ccccc1C(F)(F)F [A1-63]	+	–	–
CN(C)N(Cc1ccccc1C(F)(F)F)C(=O)c1ccccc1C(F)(F)F [A1-81]	–	+	Effect (BRSNS) (Brassica napus; dosage 25 g/ha): +
CN(C)N(Cc1ccc(Cl)nc1)C(=O)c1ccccc1C(F)(F)F [A1-94, N-[(6-Chloropyridin-3-yl)methyl]-N′,N′-dimethyl-2-(trifluoromethyl)benzohydrazide]	–	+	–
CC(c1ccc(F)cc1)N(C(=O)c1ccccc1C(F)(F)F)N(C)C (stereo not drawn) [A1-159]	–	+	–
COC(=O)c1ccccc1CN(C(=O)c1ccccc1C(F)(F)F)N(C)C [A1-603]	++	–	–
CN(C)N(Cc1cccnc1C#N)C(=O)c1ccccc1C(F)(F)F [A1-679]	–	+	Effect (BRSNS) (Brassica napus; dosage 25 g/ha): +
CCN(CC)N(Cc1cccc(Cl)c1Cl)C(=O)c1ccccc1C(F)(F)F [A2-4, N-(2,3-Dichlorobenzyl)-N′,N′-diethyl-2-(trifluoromethyl)benzohydrazide]	–	+	–
CCN(C)N(Cc1nccc(Cl)c1Cl)C(=O)c1ccccc1C(F)(F)F [A5-40]	+	+	–
CCN(C)N(Cc1ccccc1C#N)C(=O)c1ccccc1C(F)(F)F [A5-61]	–	+	–
COc1ccccc1C(=O)N(Cc1ccc(F)cc1F)N(C)C [A8-15]	+	–	Effect (TRZAS) (Triticum aestivum; dosage 25 g/ha): ++
COc1ccccc1C(=O)N(Cc1ncc(C(F)(F)F)cc1Cl)N(C)C [A8-36]	–	–	Effect (TRZAS) (Triticum aestivum; dosage 25 g/ha): ++
COc1ccccc1C(=O)N(Cc1ccc(Cl)nc1)N(C)C [A8-94]	–	–	Effect (TRZAS) (Triticum aestivum; dosage 25 g/ha): +
CN(C)N(Cc1cccc(Cl)c1)C(=O)c1ccccc1Cl [A10-2]	–	+	Effect (BRSNS) (Brassica napus; dosage 25 g/ha): ++
CN(C)N(Cc1c(F)cccc1F)C(=O)c1ccccc1Cl [A10-17]	+	–	–
CN(C)N(Cc1nccc(Cl)c1Cl)C(=O)c1ccccc1Cl [A10-40]	++	–	–
CN(C)N(Cc1ccccc1C(F)(F)F)C(=O)c1ccccc1Cl [A10-81]	–	+	–
CN(C)N(Cc1ccc(Cl)nc1)C(=O)c1ccccc1Cl [A10-94]	+	–	–
CN(C)N(Cc1cccnc1C#N)C(=O)c1ccccc1Cl [A10-679]	++	–	–
CN(C)N(Cc1ncc(C(F)(F)F)cc1Cl)C(=O)c1ccc(Cl)cc1Cl [A12-36]	–	–	Effect (BRSNS) (Brassica napus; dosage 100 g/ha): +
CN(C)N(Cc1ccc(Cl)nc1)C(=O)c1ccc(Cl)cc1Cl [A12-94]	–	+	Effect (BRSNS) (Brassica napus; dosage 25 g/ha): +
CN(C)N(Cc1ccc(Cl)cc1Cl)C(=O)c1ccc(F)cc1C(F)(F)F [A14-5]	–	–	Effect (TRZAS) (Triticum aestivum; dosage 25 g/ha): +

Compound	Effect (BRSNS) (Brassica napus; dosage 250 g/ha)	Effect (TRZAS) (Triticum aestivum; dosage 250 g/ha)	other results
CN(C)N(Cc1ccc(C(F)(F)F)cc1Cl)C(=O)c1ccc(F)cc1C(F)(F)F [A14-91]	+	–	Effect (TRZAS) (Triticum aestivum; dosage 25 g/ha): +
CN(C)N(Cc1ccc(Cl)nc1Cl)C(=O)c1ccc(F)cc1C(F)(F)F [A14-99]	+	–	Effect (TRZAS) (Triticum aestivum; dosage 25 g/ha): +
CN(C)N(Cc1cc(Cl)c(Cl)cc1Cl)C(=O)c1ccc(F)cc1C(F)(F)F [A14-138]	–	–	Effect (BRSNS) (Brassica napus; dosage 25 g/ha): +; Effect (TRZAS) (Triticum aestivum; dosage 25 g/ha): +
CN(C)N(Cc1c(Cl)cc(C(F)(F)F)c(F)c1F)C(=O)c1ccc(F)cc1C(F)(F)F [A14-608]	–	–	Effect (BRSNS) (Brassica napus; dosage 25 g/ha): +; Effect (TRZAS) (Triticum aestivum; dosage 25 g/ha): +
CN(C)N(Cc1c(Cl)c(Cl)c(C(F)(F)F)c(Cl)c1Cl)C(=O)c1ccc(F)cc1C(F)(F)F [A14-680]	++	–	–
CN(C)N(Cc1ccccc1Cl)C(=O)c1ccccc1I [A36-1]	+	–	–
CN(C)N(Cc1ccc(Cl)cc1Cl)C(=O)c1ccccc1I [A36-5]	++	+	–
CN(C)N(Cc1c(Cl)cccc1Cl)C(=O)c1ccccc1I [A36-7]	–	+	–
CN(C)N(Cc1c(Cl)cc(Cl)cc1Cl)C(=O)c1ccccc1I [A36-10]	–	+	–
CN(C)N(Cc1ncccn1)C(=O)c1ccccc1I [A36-27]	+	–	–
CN(C)N(Cc1nccc(Cl)c1Cl)C(=O)c1ccccc1I [A36-40]	–	+	–
CN(C)N(Cc1ccccc1C#N)C(=O)c1ccccc1I [A36-61]	+	+	–
CN(C)N(Cc1ccc(C#N)cc1)C(=O)c1ccccc1I [A36-63]	–	+	–
CN(C)N(Cc1ccccc1C(F)(F)F)C(=O)c1ccccc1I [A36-81]	–	+	–
CN(C)N(Cc1cccnc1C#N)C(=O)c1ccccc1I [A36-679]	+	+	–
CN(C1CCCCC1)N(Cc1ccccn1)C(=O)c1ccccc1C(F)(F)F [A47-21]	–	+	–
CN(C)N(Cc1ccccc1Cl)C(=O)c1ccc(C#N)cc1C(F)(F)F [A48-1]	–	+	Effect (BRSNS) (Brassica napus; dosage 25 g/ha): +++
CN(C)N(Cc1ncc(C(F)(F)F)cc1Cl)C(=O)c1ccc(C#N)cc1C(F)(F)F [A48-36]	–	–	Effect (BRSNS) (Brassica napus; dosage 25 g/ha): ++
Cc1ccc(C(=O)N(Cc2ncc(C(F)(F)F)cc2Cl)N(C)C)c(C(F)(F)F)c1 [A50-36, N-[3-Chloro-5-(trifluoromethyl)pyridin-2-yl-methyl]-N′,N′-dimethyl-2-(trifluoromethyl)-4-methylbenzohydrazide]	–	–	Effect (BRSNS) (Brassica napus; dosage 25 g/ha): +
Cc1ccc(C(=O)N(Cc2nccc(Cl)c2Cl)N(C)C)c(C(F)(F)F)c1 [A50-40]	–	+	Effect (BRSNS) (Brassica napus; dosage 25 g/ha): ++
Cc1ccc(C(=O)N(Cc2ccccc2C#N)N(C)C)c(C(F)(F)F)c1 [A50-61]	–	–	Effect (BRSNS) (Brassica napus; dosage 25 g/ha): +
CN(C)N(Cc1ccccc1Cl)C(=O)c1ccc(Cl)cc1C(F)(F)F [A51-1]	–	+	–
CN(C)N(Cc1ncc(C(F)(F)F)cc1Cl)C(=O)c1ccc(Cl)cc1C(F)(F)F [A51-36]	+	–	Effect (TRZAS) (Triticum aestivum; dosage 25 g/ha): +
CN(C)N(Cc1ccccc1C#N)C(=O)c1ccc(Cl)cc1C(F)(F)F [A51-61]	–	–	Effect (BRSNS) (Brassica napus; dosage 25 g/ha): ++; Effect (TRZAS) (Triticum aestivum; dosage 25 g/ha): +

Compound	Effect (BRSNS) (Brassica napus; dosage 250 g/ha)	Effect (TRZAS) (Triticum aestivum; dosage 250 g/ha)	other results
CN(C)N(Cc1ncc(C(F)(F)F)cc1Cl)C(=O)c1ccc(F)cc1F [A52-36]	–	+	Effect (BRSNS) (Brassica napus; dosage 25 g/ha): +++
CN(C)N(Cc1ccc(Cl)cc1Cl)C(=O)c1cnccc1C(F)(F)F [B1-5]	+++	–	–
CN(C)N(Cc1c(Cl)cccc1Cl)C(=O)c1cnccc1C(F)(F)F [B1-7]	+++	+	–
CN(C)N(Cc1c(Cl)cc(Cl)cc1Cl)C(=O)c1cnccc1C(F)(F)F [B1-10]	+++	–	–
CN(C)N(Cc1nccc(Cl)c1Cl)C(=O)c1cnccc1C(F)(F)F [B1-40]	+	–	–
CN(C)N(Cc1ccccc1C#N)C(=O)c1cnccc1C(F)(F)F [B1-61]	++	–	–
CN(C)N(Cc1ccc(C#N)cc1)C(=O)c1cnccc1C(F)(F)F [B1-63]	+++	–	–
CN(C)N(Cc1ccc(Cl)nc1)C(=O)c1cnccc1C(F)(F)F [B1-94]	–	+	–
CN(C)N(Cc1cccnc1C#N)C(=O)c1cnccc1C(F)(F)F [B1-679]	++	–	–
CCN(CC)N(Cc1ccccn1)C(=O)c1cnccc1C(F)(F)F [B2-21, N′,N′-Diethyl-N-(pyridin-2-ylmethyl)-4-(trifluoromethyl)nicotinohydrazide]	–	+	–
CN(C)N(Cc1ccccc1Cl)C(=O)c1ccc(C(F)(F)F)nc1 [B5-1]	–	+	–
CN(C)N(Cc1ccccn1)C(=O)c1ccc(C(F)(F)F)nc1 [B5-21]	+	–	–
CN(C)N(Cc1ccc(Cl)nc1)C(=O)c1ccc(C(F)(F)F)nc1 [B5-94]	–	–	Effect (TRZAS) (Triticum aestivum; dosage 25 g/ha): +
CN(C)N(Cc1ccccc1Cl)C(=O)c1ccc(C(F)F)nc1 [B6-1]	–	–	Effect (TRZAS) (Triticum aestivum; dosage 25 g/ha): ++
CN(C)N(Cc1ccccn1)C(=O)c1ccc(C(F)F)nc1 [B6-21]	–	+	–
CN(C)N(Cc1ccccc1C#N)C(=O)c1ccc(C(F)F)nc1 [B6-61]	–	+	–
CCN(C)N(Cc1nccc(Cl)c1Cl)C(=O)c1cnccc1C(F)(F)F [B17-40]	–	+	–
CCN(C)N(Cc1ccccc1C#N)C(=O)c1cnccc1C(F)(F)F [B17-61]	+	–	–
CN(C1CCCCC1)N(Cc1ccccc1Cl)C(=O)c1cnccc1C(F)(F)F [B18-1]	–	–	Effect (TRZAS) (Triticum aestivum; dosage 25 g/ha): ++
CN(C1CCCCC1)N(Cc1ccccn1)C(=O)c1cnccc1C(F)(F)F [B18-21]	–	–	Effect (TRZAS) (Triticum aestivum; dosage 25 g/ha): +
CN(C)N(Cc1ccccn1)C(=O)c1cncnc1C(F)(F)F [E1-21]	–	–	Effect (TRZAS) (Triticum aestivum; dosage 25 g/ha): +
CN(C)N(Cc1ccc(Cl)nc1)C(=O)c1cncnc1C(F)(F)F [E1-94]	–	+	–
CN(C)N(Cc1ccccc1C#N)C(=O)c1cncnc1C(F)(F)Cl [E3-61]	–	+	–
